Laboratory results from patent US8716277B2, “Substituted imidazole compounds useful as positive allosteric modulators of mGlu5 receptor activity” (Boehringer Ingelheim International GmbH, priority 2011, dated 2014).

Biological target: T1, human recombinant mGluR5 (Homo sapiens, UniProt P41594)
T1 construct: expressed in transfected cells; host or cells: HEK 293
Experiment: positive modulation of mGluR5, calcium based FLIPR assay
Conditions: EC50 of the modulation; HEK 293 cell line expressing human recombinant mGluR5; glutamate at approximately 5% basal stimulation; peak height of Ca fluorescence signal
Description: The positive modulation of mGluR5 is measured in a HEK 293 cell line expressing human recombinant mGluR5 and is detected with calcium based FLIPR assay. The cells are cultured with DMEM supplemented with 10% FCS, 2 μg/mL tetracycline, 100 μg/mL hygromycin and 500 μg/mL gneticin. The cell culture media is exchanged for tetracycline-free cell culture media 3-7 days before the assay. One day before the assay the cell culture medium is exchanged to DMEM without glutamine and phenol red and supplemented with 10% FCS, 100 μg/mL hygromycin and 500 μg/mL geneticin. On the assay day, the medium of the subconfluent cultures is removed and the cells are detached by addition of 2.5 ml EDTA(0.02%) per 175 cm2 culture flask for 1 minute. The cells are resuspend in Ringer solution (140 mM NaCl, 5 mM KCl, 2.5 mM CaCl2, 1.5 mM MgCl2, 5 mM Glucose, 10 mM Hepes; adjusted to pH 7.4 with NaOH), pooled and Ringer solution added to adjust the volume to 50 mL. The cell suspension is centrifuged for […] at 1500 U/min (425 g). The supernatant is removed and the cells washed a second time with 50 ml fresh Ringer solution and centrifuged again as before. The supernatant is again removed and the pellet resuspended in Ringer solution to 1,000,000 cells/ml (1×10^6 cells/mL). The cells are plated onto BD BioCoat Poly-D-Lysine 384 well plates (20,000 cells/well; 20 μl/well). The lid covered plates are then incubated until use at 37° C./10% CO2. For dye loading, 20 μl of Calcium-4 assay kit solution (prepared according to the manufacturer's description in Ringer solution) are added to the cells and the plates are incubated for […] 37° C. and then […] at room temperature.
Controls, Compound Dilution and Assay Execution:
Each assay plate contained wells with “high” and “low” controls:
Low controls 1% DMSO/ringer solution + basal glutamate activation (defined as 100% CTL).
High controls 10 μM CDPPB+ basal glutamate activation (defined as 200% CTL).
Test compounds are dissolved and diluted in DMSO to 100-fold the desired concentrations. In a second step, the compounds are diluted in Ringer solution such that the compounds are 4-fold more concentrated than the desired final assay concentration. The final DMSO concentration was 1%.
20 μl of each compound solution are then transferred to the assay plate and the Ca2+ kinetic is measured to determine any intrinsic compound activity. After 5 mM incubation in the FLIPR device, the second stimulation with 20 μl of glutamate in Ringer solution (glutamate concentration adjusted to approximately 5% basal stimulation of the maximal possible glutamate effect) is added and the kinetic Ca2+ response of the wells was measured for the modulation effect.
The peak height of the Ca release related fluorescence signal (9-66) is used for the EC50. The EC50 of the modulation is calculated over a nonlinear regression with GraphPad Prism (Table 1).

T1 sequence (P41594 21-1212): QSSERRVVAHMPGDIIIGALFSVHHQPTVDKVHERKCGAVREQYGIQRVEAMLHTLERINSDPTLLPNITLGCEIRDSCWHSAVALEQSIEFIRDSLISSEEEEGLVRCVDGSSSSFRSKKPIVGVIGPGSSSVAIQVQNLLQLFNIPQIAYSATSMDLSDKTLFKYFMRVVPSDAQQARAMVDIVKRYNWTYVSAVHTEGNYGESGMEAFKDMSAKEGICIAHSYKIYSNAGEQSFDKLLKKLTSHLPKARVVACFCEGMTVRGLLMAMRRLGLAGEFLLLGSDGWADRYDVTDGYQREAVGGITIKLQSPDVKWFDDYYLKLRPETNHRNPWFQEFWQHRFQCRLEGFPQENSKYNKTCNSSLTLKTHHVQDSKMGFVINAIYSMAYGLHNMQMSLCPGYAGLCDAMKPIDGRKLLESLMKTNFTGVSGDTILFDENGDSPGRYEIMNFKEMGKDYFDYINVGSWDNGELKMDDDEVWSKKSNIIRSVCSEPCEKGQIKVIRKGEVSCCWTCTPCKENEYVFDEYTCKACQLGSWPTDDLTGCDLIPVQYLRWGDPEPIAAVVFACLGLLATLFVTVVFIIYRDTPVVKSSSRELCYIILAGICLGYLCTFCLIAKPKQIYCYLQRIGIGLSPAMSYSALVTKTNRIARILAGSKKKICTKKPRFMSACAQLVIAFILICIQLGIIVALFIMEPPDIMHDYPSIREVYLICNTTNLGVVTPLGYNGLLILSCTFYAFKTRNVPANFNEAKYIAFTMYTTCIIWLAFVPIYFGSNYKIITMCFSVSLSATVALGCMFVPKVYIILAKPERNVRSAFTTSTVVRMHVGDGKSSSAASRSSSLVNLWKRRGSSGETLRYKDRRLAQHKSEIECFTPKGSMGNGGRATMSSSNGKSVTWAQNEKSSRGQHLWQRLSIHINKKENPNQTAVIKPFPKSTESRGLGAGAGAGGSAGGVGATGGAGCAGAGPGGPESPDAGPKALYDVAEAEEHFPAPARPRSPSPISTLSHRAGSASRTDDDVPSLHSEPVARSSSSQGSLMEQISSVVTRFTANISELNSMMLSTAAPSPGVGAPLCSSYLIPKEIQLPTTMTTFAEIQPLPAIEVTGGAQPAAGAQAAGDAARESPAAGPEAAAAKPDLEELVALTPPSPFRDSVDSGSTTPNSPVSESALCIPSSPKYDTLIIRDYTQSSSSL

SMILES | EC50 [nM]
COc1ccc(-c2cn(-c3ccc(F)cc3)c(CC(=O)N3CCc4nc(C)sc4CC3)n2)cc1 [Example 7.02.12.] | 39
Cc1ccc(-c2cn(-c3ccc(F)cc3)c(CC(=O)N3CCN(c4cccc(C#N)c4)C(=O)C3)n2)cc1 [Example 7.02.08.] | 32
Cc1nc2c(o1)CN(C(=O)Cc1nc(-c3ccc(F)c(C)c3)cn1-c1ccc(F)cc1)CC2 [Example 7.02.19.] | 67
Cc1ccc(-c2cn(-c3ccc(F)cc3)c(CC(=O)N3Cc4nc(C)sc4C3)n2)cc1 [Example 7.02.09.] | 90
COc1ccc(-c2cn(-c3ccccc3)c(CC(=O)N3CCc4nc(C)sc4CC3)n2)cc1 [Example 7.02.24.] | 125
Cc1ccc(-c2cn(-c3ccc(F)cc3)c(CC(=O)N3CCc4nc(C)oc4C3)n2)cc1 [Example 7.02.04.] | 375
Nc1nc2c(s1)CCN(C(=O)Cc1nc(-c3ccc(F)cc3)cn1-c1ccc(F)cc1)CC2 [Example 7.01.02.] | 109
Cc1nc2c(s1)CN(C(=O)Cc1nc(-c3ccc(F)cc3)cn1-c1ccc(F)cc1)C2 [Example 7.02.03.] | 210
O=C(Cc1nc(-c2ccc(F)cc2)cn1-c1ccc(F)cc1)N1CCN(c2noc3ccccc23)CC1 [Example 7.02.02.] | 114
COc1cccc(N2CCN(C(=O)Cc3nc(-c4ccc(C)cc4)cn3-c3ccc(F)cc3)CC2=O)c1 [Example 7.02.07.] | 96
COc1ccc(-c2cn(-c3ccccc3)c(CC(=O)N3CCc4nc(C)oc4C3)n2)cc1 [Example 7.02.25.] | 1440
Cc1nc2c(s1)CCN(C(=O)Cc1nc(-c3ccc(F)c(C)c3)cn1-c1ccccc1)CC2 [Example 7.02.29.] | 33
Cc1cc(-c2cn(-c3ccc(F)cc3)c(CC(=O)N3CCc4nc(N)sc4CC3)n2)ccc1F [Example 7.02.20.] | 70
Cc1cc(-c2cn(-c3ccc(F)cc3)c(CC(=O)N3CCc4nc(N)sc4CC3)n2)ccc1Cl [Example 7.02.16.] | 70

More lines, in order of falling EC50, values ahead:

EC50 [nM] | SMILES
1120 | COc1cccc(-c2cn(-c3ccc(F)cc3)c(CC(=O)N3CCc4nc(C)oc4C3)n2)c1 [Example 7.02.21.]
784 | Cc1nc2c(o1)CN(C(=O)Cc1nc(-c3ccc(F)cc3)cn1-c1ccc(F)cc1)CC2 [Example 7.01.01., 2-(1,4-Bis-(4-fluoro-phenyl)-1H-imidazol-2-yl)-1-(2-methyl-6,7-dihydro-4H-oxazolo[5,4-c]pyridin-5-yl)-ethanone]
394 | COc1ccc(-c2cn(-c3ccccc3)c(CC(=O)N3CCc4nc(N)sc4CC3)n2)cc1 [Example 7.02.23.]
138 | COc1cccc(-c2cn(-c3ccc(F)cc3)c(CC(=O)N3CCc4nc(C)sc4CC3)n2)c1 [Example 7.02.22.]
103 | COc1ccc(-c2cn(-c3ccc(F)cc3)c(CC(=O)N3CCc4nc(N)sc4CC3)n2)cc1 [Example 7.02.11.]
94 | Cc1nc2c(s1)CCN(C(=O)Cc1nc(-c3ccc(F)cc3)cn1-c1ccc(F)cc1)CC2 [Example 7.02.01., 2-[1,4-Bis-(4-fluoro-phenyl)-1H-imidazol-2-yl]-1-(2-methyl-4,5,7,8-tetrahydro-thiazolo[4,5-d]azepin-6-yl)-ethanone]
94 | COc1cccc(N2CCN(C(=O)Cc3nc(-c4ccc(F)c(C)c4)cn3-c3ccccc3)CC2=O)c1 [Example 7.02.27.]
93 | Cc1ccc(-c2cn(-c3ccc(F)cc3)c(CC(=O)N3CCc4nc(C)sc4CC3)n2)cc1 [Example 7.02.06.]
87 | COc1ccc(-c2cn(-c3ccc(F)cc3)c(CC(=O)N3Cc4nc(C)sc4C3)n2)cc1 [Example 7.02.14.]
82 | COc1ccc(-c2cn(-c3ccc(F)cc3)c(CC(=O)N3CCN(c4cccc(C#N)c4)C(=O)C3)n2)cc1 [Example 7.02.30.]
80 | Cc1nc2c(o1)CN(C(=O)Cc1nc(-c3ccc(Cl)c(C)c3)cn1-c1ccc(F)cc1)CC2 [Example 7.02.17.]
74 | COc1ccc(-c2cn(-c3ccc(F)cc3)c(CC(=O)N3CCN(c4cccc(OC)c4)C(=O)C3)n2)cc1 [Example 7.02.13.]
71 | Cc1cc(-c2cn(-c3ccccc3)c(CC(=O)N3CCc4nc(N)sc4CC3)n2)ccc1F [Example 7.02.26.]
67 | Cc1nc2c(s1)CCN(C(=O)Cc1nc(-c3ccc(F)c(C)c3)cn1-c1ccc(F)cc1)CC2 [Example 7.02.18.]
52 | Cc1ccc(-c2cn(-c3ccc(F)cc3)c(CC(=O)N3CCc4nc(N)sc4CC3)n2)cc1 [Example 7.02.05.]
48 | Cc1nc2c(s1)CN(C(=O)Cc1nc(-c3ccc(F)c(C)c3)cn1-c1ccccc1)C2 [Example 7.02.28.]
45 | Cc1nc2c(s1)CCN(C(=O)Cc1nc(-c3ccc(Cl)c(C)c3)cn1-c1ccc(F)cc1)CC2 [Example 7.02.15.]
